Data: PubChem BioAssay AID489033 (Sanford-Burnham Center for Chemical Genomics, 2010)
Active and inactive are the calls of the source. The rule behind the calls is not given here.

Each compound was assayed on 697B B-cell line, NF-kB luciferase reporter luminescence (assay: inhibitors of B-cell NF-kB luciferase signal – 697B cells, luminescence, selectivity assay for T-cell antigen receptor NF-kB inhibitors, dose response (AID 489033)).
In the case of COC(=O)c1ccc(C)c(NS(=O)(=O)c2ccc3c(c2)OCCO3)c1, the IC50 is reported as > 80 µM (inactive). Cc1ccc2[nH]c3c(c2c1)CCCC3NC(=O)CCl (stereo unspecified) gave an IC50 of 1.67 µM. Cc1ccc(O)c(NC(=O)c2cc(-c3ccco3)on2)c1 was tested, and the IC50 was > 80 µM (inactive). CC[C@@]1(O)C(=O)OCc2c1cc1n(c2=O)Cc2cc3c(CN(C)C)c(O)ccc3nc2-1 gave an IC50 of 0.96 µM. With Cc1ccc(C(=O)O/N=C(\N)c2ccccn2)c(Cl)c1 the IC50 was 0.86 µM. In the case of Oc1ccc2ccccc2c1N=Nc1ccccn1, the IC50 is reported as 3.22 µM. COc1cccc(/C=N/Nc2ncnc3scc(-c4ccccc4)c23)c1O was tested, and the IC50 was 39.8 µM (inactive). In the case of COc1ccc(NS(=O)(=O)c2cc(-c3cnc(C4CC4)o3)ccc2C)cc1, the IC50 is reported as > 80 µM (inactive). With CCOC(=O)c1[nH]c2c(c1C)C(=O)CC(c1ccc(F)cc1)C2 (stereo unspecified) the IC50 was > 80 µM (inactive). In the case of Cc1ccc(C)c(NS(=O)(=O)c2ccc(-c3cnc(C4CC4)o3)cc2)c1, the IC50 is reported as > 80 µM (inactive). With CN1/C(=C\C(=O)C[n+]2ccc3ccccc3c2)C(C)(C)c2ccccc21 the IC50 was > 80 µM (inactive). In the case of COc1ccccc1N1CCN(C(=O)C2c3ccccc3Oc3ccccc32)CC1, the IC50 is reported as > 80 µM (inactive). CCOc1ccc(-c2[nH]ncc2-c2ccc(OC)c(OC)c2)c(O)c1 was tested, and the IC50 was > 80 µM (inactive). For CC(=O)O[C@@]12CO[C@@H]1C[C@H](O)[C@@]1(C)C(=O)[C@H](O)C3=C(C)[C@@H](OC(=O)[C@H](O)[C@@H](NC(=O)c4ccccc4)c4ccccc4)C[C@@](O)([C@@H](OC(=O)c4ccccc4)C12)C3(C)C (stereo partly specified), the IC50 was > 80 µM (inactive). For COc1ccc(OCC(=O)Nc2ccccc2N2CCCCC2)cc1, the IC50 was > 80 µM (inactive). COc1ccc(C2=NOC(C(=O)NCc3cccs3)C2)cc1OC (stereo unspecified) was tested, and the IC50 was > 80 µM (inactive). C=C1C(=O)C=C2CN(C(=O)c3ccccc3)[C@@](Cc3ccc(F)cc3)(C(=O)OC)[C@@H]12 gave an IC50 of 1.01 µM. Compound Cc1oc2c(c1C(=O)NCc1cccnc1)C(=O)c1ccccc1C2=O has an IC50 of 4.69 µM. Cc1ccc(Nc2cc(C)nn2-c2nc(C)cc(=O)[nH]2)cc1 was tested, and the IC50 was 0.95 µM. Cc1ccc2nc(SCC(=O)Nc3cc(C(F)(F)F)ccc3N3CCOCC3)[nH]c2c1 was tested, and the IC50 was > 80 µM (inactive). Work on CS(=O)(=O)c1ccc(Sc2nc3ccccc3s2)c([N+](=O)[O-])c1 yielded an IC50 of 1.11 µM. CN(C)S(=O)(=O)c1ccc(Nc2nc(C3CC3)nc3c2nnn3Cc2ccccc2Cl)cc1 was tested, and the IC50 was > 80 µM (inactive). For C=CCn1c(SCc2c(C)noc2C)nc2ccccc2c1=O, the IC50 was > 80 µM (inactive). For O=C(N/N=C\c1c(O)ccc2ccccc12)c1ccc(S(=O)(=O)N2CCCCC2)cc1, the IC50 was > 80 µM (inactive). COc1cc(Nc2ccc(C)cc2)c([N+](=O)[O-])nc1[N+](=O)[O-] was tested, and the IC50 was > 80 µM (inactive). O=C(Nc1ccc(Cl)c(S(=O)(=O)N2CCOCC2)c1)c1ccc(OCC2CCCO2)cc1 (stereo unspecified) was tested, and the IC50 was 4.54 µM. In the case of O=S(=O)(C/C(=C/CO)S(=O)(=O)c1ccccc1)c1ccccc1, the IC50 is reported as 0.28 µM. In the case of O=C(COc1ccc(C(=O)c2ccccc2)cc1)NCc1ccc(F)cc1, the IC50 is reported as > 80 µM (inactive). For O=C(Nc1ccc([N+](=O)[O-])cc1)Nc1ccon1, the IC50 was > 80 µM (inactive). O=[N+]([O-])c1nn(-c2ccc3c(c2)OCCO3)n(O)c1=Nc1ccccc1 was tested, and the IC50 was < 0.16 µM. COC(=O)c1nn(-c2ccc3c(c2)CCN3C(C)=O)cc1O showed an IC50 of 5.08 µM. With CC1(C)CC(N2CCN(C(c3ccccc3)c3ccccc3)CC2)=CC(=[N+]2CCCCC2)C1 the IC50 was 1.64 µM. For CN(C)c1ccc(-c2nn3c(-c4ccccc4Cl)nnc3s2)cc1, the IC50 was > 80 µM (inactive). With O=C(c1ccccc1)c1cc([N+](=O)[O-])ccc1N1CCOCC1 the IC50 was > 80 µM (inactive). C=CCOC(=O)c1[nH]c2c(c1C)C(=O)CC(c1ccco1)C2 (stereo unspecified) was tested, and the IC50 was > 80 µM (inactive). With CCCCCCCCn1c2c(c(=N)c3c1CCC3)CCCC2 the IC50 was 27.5 µM (inactive). For Cc1cc(C)nc(SCC(=O)Nc2ccnc3ccccc23)n1, the IC50 was > 80 µM (inactive). For CC(=O)N(C)C1=C(N2CCOCC2)C(=O)c2ccccc2C1=O, the IC50 was 17.9 µM. In the case of COc1cc(-c2noc(C)c2/C=C/c2ccc(OC(C)=O)cc2)cc(OC)c1OC, the IC50 is reported as > 80 µM (inactive). Cc1nc2c(=O)n(C)c(=O)nc-2n(C)n1 showed an IC50 of 3.36 µM. Compound CN(C)c1ccc(-[n+]2c(-c3ccccc3)cc(-c3ccccc3)cc2-c2ccccc2)cc1 has an IC50 of 0.79 µM. C#Cc1ccc([C@@H]2C=C(C(=O)N3CCN(Cc4ccccc4)CC3)O[C@H](OCCCCO)C2)cc1 was tested, and the IC50 was > 80 µM (inactive). In the case of CCOc1ccc(NC(=O)c2cc3c(C)nc4ccccc4c3o2)cc1, the IC50 is reported as > 80 µM (inactive). Cc1cc(C)cc(C(=O)N2CC(=O)Nc3ccccc32)c1 was tested, and the IC50 was > 80 µM (inactive). For COc1ccc(Nc2cc(C)nc(-n3nc(C)cc3C)n2)cc1, the IC50 was > 80 µM (inactive). With CC(C)CC[n+]1ccccc1/C=C/c1ccc(N(C)C)cc1 the IC50 was > 80 µM (inactive). With CC(=O)c1sc2c(c1OC(=O)c1ccc(Cl)cc1Cl)c(=O)n(-c1ccccc1)c(=S)n2-c1ccccc1 the IC50 was 1.93 µM. With Cc1cc(NC(=O)CSc2nc3c(sc4ccccc43)c(=O)n2CCCN2CCOCC2)n[nH]1 the IC50 was > 80 µM (inactive). With CCCCOc1ccc(Br)cc1/C(C)=N/NC1=NCCN1 the IC50 was 28.6 µM (inactive). For CC(=O)c1ccc(Oc2cc(C)nc(-n3nc(C)cc3C)n2)cc1, the IC50 was > 80 µM (inactive). With CCCC[C@@H](C)C[C@@H](C)C(=O)N(C)[C@@H](CC(C)C)C(=O)N[C@H](C(=O)N(C)[C@H](C(=O)N1C[C@@H](O)C[C@H]1C(=O)N1C(=O)C=C[C@@H]1C)C(C)C)C(C)OC(C)=O (stereo partly specified) the IC50 was < 0.16 µM. With COc1ccc(C(C(=O)NC2CCCCC2)N(C(=O)CCl)c2ccc(C)cc2)cc1 (stereo unspecified) the IC50 was < 0.16 µM. With O=C(c1ccccc1-c1ccccc1)N1CCN(c2ccccn2)CC1 the IC50 was > 80 µM (inactive). For COc1ccc(C(=O)NNC(=O)c2ccccn2)cc1, the IC50 was 5.2 µM. With Cc1ccc(O)c(NC(=O)CCC2CCCCC2)c1 the IC50 was > 80 µM (inactive). CCOC(=O)c1ccc2nc(Nc3nc4ccc(F)cc4s3)sc2c1 was tested, and the IC50 was 20.3 µM (inactive). For O=c1cc(-c2ccccc2)[nH]c2cc(F)ccc12, the IC50 was > 80 µM (inactive). For COc1ccc(NS(=O)(=O)c2ccc(-c3cnc(C4CC4)o3)cc2)cc1OC, the IC50 was > 80 µM (inactive). COc1cc(C2C3=C(Nc4ncnn42)c2ccccc2CC3)cc(OC)c1OC (stereo unspecified) was tested, and the IC50 was > 80 µM (inactive). With Cc1cccc(NS(=O)(=O)c2ccc(-c3cnc(C4CC4)o3)cc2)c1 the IC50 was > 80 µM (inactive). Cc1ccsc1/C=N/NC(=O)c1cc(-c2ccncc2)nc2ccccc12 gave an IC50 of 2.38 µM. CC(C)c1oc(=O)cc2c1[C@@H](O)[C@H]1OC(=O)[C@@]3(C)CC[C@@H](O)[C@@]2(C)C13 (stereo partly specified) showed an IC50 of 14 µM. For COc1ccc(NC(=O)/C(Cl)=C(/Cl)S(=O)Cc2ccc(C)cc2)cn1 (stereo unspecified), the IC50 was < 0.16 µM. For COc1ccc(Nc2nc3cc(C)ccc3cc2C#N)c(OC)c1, the IC50 was > 80 µM (inactive). CC(=O)NC(c1ccc(C(C)C)cc1)c1ccc2cccnc2c1O (stereo unspecified) was tested, and the IC50 was > 80 µM (inactive). For COc1ccccc1CNS(=O)(=O)c1ccc(-c2cnc(C3CC3)o2)cc1, the IC50 was > 80 µM (inactive). With CC[C@]1(O)CC2CN(CCc3c([nH]c4ccccc34)[C@@](C(=O)OC)(c3cc4c(cc3OC)N(C=O)[C@H]3[C@@](O)(C(=O)OC)[C@H](OC(C)=O)[C@]5(CC)C=CCN6CC[C@]43[C@@H]65)C2)C1 (stereo partly specified) the IC50 was > 80 µM (inactive). With CC(C)(C)c1csc(Sc2ccc([N+](=O)[O-])cn2)n1 the IC50 was 10.2 µM. For CNC[C@@H](CC1CCCCC1)NC[C@H](CC(C)C)NCCc1cccc(C(F)(F)F)c1, the IC50 was 4.88 µM. COc1ccc(S(=O)(=O)N2N=C(C)Oc3ccccc3C2=O)cc1 was tested, and the IC50 was > 80 µM (inactive). COc1ccc(C)cc1NS(=O)(=O)c1ccc(-c2cnc(C3CC3)o2)cc1 was tested, and the IC50 was > 80 µM (inactive). For COC(=O)c1[nH]c2c(c1C)C(=O)CC(c1cccc(OC)c1)C2 (stereo unspecified), the IC50 was > 80 µM (inactive). With CCOC(=O)c1[nH]c(C)c(C(=O)Nc2cc(Cl)ccc2C)c1C the IC50 was > 80 µM (inactive). COc1cc(NCCCCCCCN)c2ncccc2c1 was tested, and the IC50 was 41.4 µM (inactive). CCOc1ccc(Nc2cc(C)nc(-n3nc(C)cc3C)n2)cc1 was tested, and the IC50 was > 80 µM (inactive). For Cc1c(C(=O)OC2CCCC2)[nH]c2c1C(=O)CC(c1ccco1)C2 (stereo unspecified), the IC50 was > 80 µM (inactive). With CCn1c2ccccc2c2cc(NC(=O)c3cc(OC)c(OC)c(OC)c3)ccc21 the IC50 was 18.5 µM. COc1cc2c(c(OC)c1OC)-c1ccc(O)cc1[C@@H](NC(C)=O)CC2 was tested, and the IC50 was > 80 µM (inactive). In the case of C=C(C)[C@@]12OC3(c4ccccc4)O[C@@H]1C1[C@@H]4O[C@]4(CO)[C@@H](O)[C@]4(O)C(=O)C(C)=C[C@H]4[C@@]1(O3)[C@H](C)[C@H]2OC(=O)/C=C/C=C/c1ccccc1 (stereo partly specified), the IC50 is reported as 38.9 µM (inactive). In the case of O=C(c1ccc(CS(=O)c2ccccc2Cl)o1)N1CCN(c2ccccn2)CC1 (stereo unspecified), the IC50 is reported as > 80 µM (inactive). With Cn1ncc2c(N3CCN(c4ccc(Cl)c(Cl)c4)CC3)ncnc21 the IC50 was > 80 µM (inactive). In the case of COc1ccc(C(=O)Nc2ccc3[nH]c(-c4cccc(OC)c4)cc(=O)c3c2)cc1, the IC50 is reported as > 80 µM (inactive). In the case of COc1cc(-c2noc(C)c2-c2ccc(N(C)C)nc2)cc(OC)c1OC, the IC50 is reported as > 80 µM (inactive). With COc1ccc(/C=C2/C(=O)OCc3cc(OC)c(OC)cc32)cc1 the IC50 was > 80 µM (inactive). With Cc1ccc2c(c1)COc1c3ccc(C(=O)O)cc3nn1-2 the IC50 was 13.4 µM. CC(C)Oc1ccccc1C1CC(=O)Nc2cc3c(cc21)OCCO3 (stereo unspecified) was tested, and the IC50 was 59.5 µM (inactive). Cc1ccc(S(=O)(=O)/N=C2\C=C(Nc3ccc(O)cc3)C(=O)c3ccccc32)cc1 was tested, and the IC50 was 2.04 µM. CCOC(=O)N=Nc1c2ccccc2c2nc3no[nH]c3nc12 showed an IC50 of 2.28 µM. In the case of CCOc1ccc2c(c1)OC(c1ccc(C)cc1)(C(F)(F)F)NC2=O (stereo unspecified), the IC50 is reported as > 80 µM (inactive). CCCCCCCCCn1c2c(c(=N)c3c1CCC3)CCCC2 was tested, and the IC50 was 0.33 µM. c1cc2c(cc1C1=NNC(=NC3CC3)SC1)OCCO2 was tested, and the IC50 was 0.3 µM. In the case of Cc1noc(C)c1COc1ccc(C(=O)NNC(=O)c2ccccc2F)cc1, the IC50 is reported as > 80 µM (inactive). Compound CCCCN1/C(=C/c2ccc3ccccc3[n+]2CC)Sc2ccccc21 has an IC50 of 8.19 µM. With CCCC(=O)NC(c1ccccc1Cl)c1ccc2cccnc2c1O (stereo unspecified) the IC50 was > 80 µM (inactive). COc1ccc(-[n+]2c(-c3ccccc3)cc(-c3ccc(C)cc3)cc2-c2ccccc2)cc1 gave an IC50 of 8.23 µM. Work on CCN(CC)c1ccc(/C=C/c2ccc3ccc(OC)cc3[n+]2CC)cc1 yielded an IC50 of 2.84 µM.
